The test deals with Pseudomonas aeruginosa PAO1. Nature of the test: Antibacterial activity test, viable cell counts by heterotrophic plate count. It counts as cell-based. The settings on record: microgel-free surfactant solutions (10 mmol/kg SDS, 14.4 mmol/kg TX-100, 3.0 mmol/kg 40:60 SDS:TX100), 0-30 min; FIG. 5 Groups 6-8.

Protocol: The effect of anionic and nonionic surfactants on the microgel antibacterial properties was probed using Pseudomonas aeruginosa (wild-type P. aeruginosa PAOI strain) as model Gram-negative bacteria. The bacteria were cultured in one-tenth strength LB broth (2.5 g/L, Difco Laboratory, Detroit, Mich.) at 37° C. until the late-exponential phase. Bacterial cells were then harvested by centrifugation at 2,000 g for 15 min (using an Eppendorf 5804R centrifuge; Hamburg, Germany), washed and resuspended in phosphate buffer (0.54 g Na2HPQ4 and 0.88 g KH2PO4 per liter, pH=6.98) as bacterial suspensions (0D600=0.25±0.02).
Each antimicrobial formulation sample was then tested in triplicate at room temperature (22±2° C.). The bacterial suspension was mixed with the surfactant/microgel formulations in a 1:1000 ratio (e.g., 15 μl:15 ml). After mixing, samples were taken at 5, 15, and 30 min to quantify the effect of surfactant/microgel formulations on the number of viable cells. The viable cells were enumerated at each time point using the heterotrophic plate count method with R2A agar plates (Difco Laboratories, Detroit, Mich.).
The antibacterial activity of the surfactant/microgel formulations was tested using Pseudomonas aeruginosa PAO1 as a model Gram-negative bacteria. […]

In the case of `CCCCCCCCCCCCOS(=O)(=O)[O-].[Na+]` [SDS, sodium dodecyl sulfate], the “effect on bacterial viability” value was “no short-term effect on bacterial viability”.

As for t-octylphenoxypolyethoxyethanol [TX100], the “effect on bacterial viability” value is recorded as “no short-term effect on bacterial viability”.

The record behind these values is patent US9788541B2, “Antibacterial surfactant/microgel formulations, methods of making and methods of using the same” (The University of Toledo, priority 2012, dated 2017).
